Target: Biliverdin reductase A (Homo sapiens) (UniProt P53004)
Assay: BLVRA binders by thermal stabilization, biophysical, DSF, SYPRO orange, recombinant protein (AID 516)
Details: at 10 µM, buffer 10 mM HEPES, pH 7.5, NaCl 150 mM, hits give high values

Sequence of Biliverdin reductase A (Homo sapiens) (P53004 whole entry, looked up): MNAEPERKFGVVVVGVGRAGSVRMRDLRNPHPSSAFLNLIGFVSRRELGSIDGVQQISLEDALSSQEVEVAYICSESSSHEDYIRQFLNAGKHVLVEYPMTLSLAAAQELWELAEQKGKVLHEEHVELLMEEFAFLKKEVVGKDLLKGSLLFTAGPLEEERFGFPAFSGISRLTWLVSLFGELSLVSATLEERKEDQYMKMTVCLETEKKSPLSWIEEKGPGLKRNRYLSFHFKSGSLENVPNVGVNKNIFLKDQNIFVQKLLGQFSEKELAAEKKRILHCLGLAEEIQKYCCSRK

C=CC1=C(C)/C(=C/c2[nH]c(Cc3[nH]c(/C=C4\NC(=O)C(C)=C4C=C)c(C)c3CCC(=O)O)c(CCC(=O)O)c2C)NC1=O
Tm shift: 3.8 Celsius

Reference: PubChem BioAssay AID516
